The values below come from US20240417387A1, “SULFONYLPIPERAZINYL COMPOUNDS FOR TREATMENT OF BACTERIAL INFECTIONS” (Hoffmann-La Roche Inc., priority 2021, published 2024).

≈ marks a conversion by molar mass, not a printed value. Where two headings read alike, the source gives them in different places. A value given as a limit tells only on which side of the number the result lay.

Series [1] concerns Klebsiella pneumonia ATCC 43816. The series can be described thus: Minimal Inhibitory Concentration (MIC) broth dilution assay, K. pneumonia ATCC 43816. The series is classed as cell-based. Conditions: Klebsiella pneumoniae, ATCC43816, 20 hours at 35° C., CAMHB, read-out: MIC K. p ATCC 43816. In short, it runs like this:
(§1)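 Broth microdilution with twofold compound series in cation-adjusted Mueller Hinton broth, inoculum 5×10^5 CFU/mL, applied to each strain. Plates incubated 20 h at 35 °C in ambient air. MIC […] recorded as the lowest concentration with no visible growth, read by eye.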
(In general: Broth dilution looks for growth in wells or tubes with falling amounts of substance.)

In series [2] the test system is Escherichia coli ATCC 25922. The series can be described thus: Minimal Inhibitory Concentration (MIC) broth dilution assay, E. coli ATCC 25922. In kind it is cell-based. Conditions: Escherichia coli, ATCC25922, 20 h, read-out: MIC E. coli ATCC 25922. In short, it runs like this: as §1
The nature of series [3]: Human microsome stability assay. Conditions: human liver microsomes 0.5 mg/mL, 37° C., pH 7.4, NADPH regenerating system. The series is classed as in vitro ADME. In a few lines:
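Compound […] with 0.5 mg/mL human liver microsomal protein in 100 mM potassium phosphate pH 7.4, 10 min preincubation at 37 °C, started with NADPH regenerating system. Sampled 0–30 min, remaining compound by LC-MS/MS; clearance binned low <7, medium 7–16.2, high >16.2 mL/min/kg.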

For series [4], the target named is Escherichia coli UDP-2,3-diacylglucosamine hydrolase (LpxH) (Escherichia coli (strain K12), UniProt P43341). The series can be described thus: Enzymatic IC50 assay of Escherichia coli LpxH (UMP/CMP-Glo luminescence). In kind it is biochemical. On the procedure:
The inhibitory potency of compounds of Escherichia coli UDP-2,3-diacylglucosamine hydrolase (LpxH) was determined in an enzymatic assay. UDP-2,3-diacylglucosamine (UDP-DAG) was purified from the Caulobacter crescentus LpxI D225A mutant protein that contained a tightly bound UDP-DAG molecule. The enzyme was diluted using assay buffer containing 50 mM NaCl, 20 mM Tris-HCl pH7.5, 2.5 mM MnCl2, 0.01% Triton X-100.1 mg/mL BSA, and the final concentration is 2 nM. The compounds were diluted by Agilent liquid handler Bravo, the compound's serial dilution dose ranges from 100 μM to 1.7 nM. Then the enzyme and compounds mixture were incubated at room temperature for 10 mins. The enzymatic assay was started by adding UDP-DAG (FAC is 5 μM) and incubated for 20 mins at room temperature. The plate was then heated to 95° C. for 15 mins on a water batch to stop the reaction. The hydrolysis of UDP-DAG by LpxH yielded 2,3-diacylglucosamine 1-phosphate (lipid X) and UMP, which was converted to ATP and quantified by the luciferase reaction using the UMP/CMP-Glo™ Glycosyltransferase Assay kit from Promega. The compound's inhibitory effect of LpxH is determined by measuring the light change using a luminometer (Envision).

Series [5] concerns Escherichia coli BW 25113. The series can be described thus: Minimal Inhibitory Concentration (MIC) broth dilution assay, E. coli BW 25113. In kind it is cell-based. Particulars: Escherichia coli, BW25113, 20 hours at 35° C., CAMHB, read-out: MIC E. coli K-12 BW 25113. In short, it runs like this:
as §1

[6] abbreviates: Enzymatic IC50 against Escherichia coli LpxH, read-out: IC50 (converted).

Chain of Escherichia coli UDP-2,3-diacylglucosamine hydrolase (LpxH) (P43341 whole entry): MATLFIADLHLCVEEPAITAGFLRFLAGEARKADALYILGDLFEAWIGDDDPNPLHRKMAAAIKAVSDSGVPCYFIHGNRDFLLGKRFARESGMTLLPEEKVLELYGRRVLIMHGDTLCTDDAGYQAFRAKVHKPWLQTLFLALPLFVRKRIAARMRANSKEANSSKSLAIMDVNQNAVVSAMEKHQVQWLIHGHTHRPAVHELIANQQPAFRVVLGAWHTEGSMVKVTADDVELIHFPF

On to `NC1CC(=O)N(c2ccc(S(=O)(=O)N3CCN(c4cc(C(F)(F)[C@H]5CC[C@H](C(=O)NCCCO)CC5)cc(Cl)n4)CC3)cc2)C1` (stereo partly drawn) [Example 003, Trans-4-[[2-[4-[4-(4-amino-2-oxo-pyrrolidin-1-yl)phenyl]sulfonylpiperazin-1-yl]-6-chloro-4-pyridyl]-difluoro-methyl]-N-(3-hydroxypropyl)cyclohexanecarboxamide], for which the MIC came to 2.1 µg/mL (≈ 3.14 µM) in series [1], 4.2 µg/mL (≈ 6.28 µM) in series [2] and 1 µg/mL (≈ 1.49 µM) in series [5]. In series [3], the “Clearance of Human microsome” value was 7.41 mL/min/kg. This compound also registered an IC50 in series [4] below 2.99 nM.
For `CC1(N)CCN(C(=O)[C@H]2CC[C@H](C(F)(F)c3cc(Cl)nc(N4CCN(S(=O)(=O)c5ccc(N6C[C@H](N)CC6=O)cc5)CC4)c3)CC2)CC1` [Example 004, Trans-(4R)-4-amino-1-[4-[4-[4-[[4-(4-amino-4-methyl-piperidine-1-carbonyl)cyclohexyl]-difluoro-methyl]-6-chloro-2-pyridyl]piperazin-1-yl]sulfonylphenyl]pyrrolidin-2-one], the minimum inhibitory concentration (MIC) in series [1] was 1.1 µg/mL (≈ 1.55 µM); in series [2], 1.1 µg/mL (≈ 1.55 µM); in series [5] it was 0.83 µg/mL (≈ 1.17 µM). Further, the “Clearance of Human microsome” value in series [3] came out at 6.15 mL/min/kg. For the same compound, in series [4] (setting [6]), the 50% inhibitory concentration (IC50) is 8.47 nM.
In the case of `CN1CC2(C1)CN(C(=O)[C@H]1CC[C@H](C(F)(F)c3cc(Cl)nc(N4CCN(S(=O)(=O)c5ccc(N6C[C@H](N)CC6=O)cc5)CC4)c3)CC1)C2` [Example 005, Trans-(4R)-4-amino-1-[4-[4-[6-chloro-4-[difluoro-[4-(6-methyl-2,6-diazaspiro[3.3]heptane-2-carbonyl)cyclohexyl]methyl]-2-pyridyl]piperazin-1-yl]sulfonylphenyl]pyrrolidin-2-one], the results for the minimum inhibitory concentration (MIC) in series [1], in series [2] and in series [5] were 2.2 µg/mL (≈ 3.12 µM), 2.2 µg/mL (≈ 3.12 µM) and 3.3 µg/mL (≈ 4.67 µM), respectively. For the same compound, in series [3], the “Clearance of Human microsome” value was found to be 6.15 mL/min/kg. Moreover, the half-maximal inhibitory concentration (IC50) in series [4] (setting [6]) was 4.25 nM.
Turning to `N[C@@H]1CC(=O)N(c2ccc(S(=O)(=O)N3CCN(c4cc(C(F)(F)[C@H]5CC[C@H](C(=O)NC6CNCC6O)CC5)cc(Cl)n4)CC3)cc2)C1` (stereo partly shown) [Example 006], the MIC in series [1], in series [2] and in series [5] was 1.1 µg/mL (≈ 1.58 µM) each time. The “Clearance of Human microsome” value in series [3] was 6.15 mL/min/kg. Also, in series [4] (setting [6]), the half-inhibitory concentration (IC50) was 4.31 nM.
As for `NC1CC(NC(=O)[C@H]2CC[C@H](C(F)(F)c3cc(Cl)nc(N4CCN(S(=O)(=O)c5ccc(N6C[C@H](N)CC6=O)cc5)CC4)c3)CC2)C1` (stereo partly drawn) [Example 007, Trans-N-(3-aminocyclobutyl)-4-[[2-chloro-6-[4-[4-[(4R)-4-amino-2-oxo-pyrrolidin-1-yl]phenyl]sulfonylpiperazin-1-yl]-4-pyridyl]-difluoro-methyl]cyclohexanecarboxamide], the MIC in series [1] stood at 0.53 µg/mL (≈ 0.779 µM); in series [2] it was 1.1 µg/mL (≈ 1.62 µM); in series [5], 1.1 µg/mL (≈ 1.62 µM). The “Clearance of Human microsome” value in series [3] was determined as 6.90 mL/min/kg. Also, in series [4] (setting [6]), the half-maximal inhibitory concentration (IC50) was 7.35 nM.
On to `CC(CN)NC(=O)[C@H]1CC[C@H](C(F)(F)c2cc(Cl)nc(N3CCN(S(=O)(=O)c4ccc(N5C[C@H](N)CC5=O)cc4)CC3)c2)CC1` (stereo partly drawn) [Example 008, Trans-N-(2-amino-1-methyl-ethyl)-4-[[2-chloro-6-[4-[4-[(4R)-4-amino-2-oxo-pyrrolidin-1-yl]phenyl]sulfonylpiperazin-1-yl]-4-pyridyl]-difluoro-methyl]cyclohexanecarboxamide], for which the values for the MIC in series [1], in series [2] and in series [5] were 0.52 µg/mL (≈ 0.778 µM), 0.52 µg/mL (≈ 0.778 µM) and 1 µg/mL (≈ 1.5 µM), respectively. Further, in series [3], the “Clearance of Human microsome” value amounted to 8.07 mL/min/kg. Moreover, the concentration for half-maximal inhibition (IC50) in series [4] (setting [6]) was 5.99 nM.
Regarding `N[C@@H]1CC(=O)N(c2ccc(S(=O)(=O)N3CCN(c4cc(C(F)(F)[C@H]5CC[C@H](C(=O)NCCN6CCCC6)CC5)cc(Cl)n4)CC3)cc2)C1` [Example 009, Trans-4-[[2-chloro-6-[4-[4-[(4R)-4-amino-2-oxo-pyrrolidin-1-yl]phenyl]sulfonylpiperazin-1-yl]-4-pyridyl]-difluoro-methyl]-N-(2-pyrrolidin-1-ylethyl)cyclohexanecarboxamide], the MIC in series [1], in series [2] and in series [5] was 1.5 µg/mL (≈ 2.12 µM) throughout. The “Clearance of Human microsome” value in series [3] came out at 11.13 mL/min/kg. For the same compound, the IC50 in series [4] (setting [6]) is below 2.82 nM.
Regarding `NCC1(NC(=O)[C@H]2CC[C@H](C(F)(F)c3cc(Cl)nc(N4CCN(S(=O)(=O)c5ccc(N6C[C@H](N)CC6=O)cc5)CC4)c3)CC2)CC1` [Example 012, Trans-N-[1-(aminomethyl)cyclopropyl]-4-[[2-[4-[4-[(4R)-4-amino-2-oxo-pyrrolidin-1-yl]phenyl]sulfonylpiperazin-1-yl]-6-chloro-4-pyridyl]-difluoro-methyl]cyclohexanecarboxamide], the minimal inhibitory concentration (MIC) in series [1], in series [2] and in series [5] was 0.57 µg/mL (≈ 0.838 µM) throughout. The “Clearance of Human microsome” value in series [3] is recorded as 6.19 mL/min/kg. The IC50 in series [4] (setting [6]) is 2.94 nM.
In the case of `NCCN1CCN(C(=O)[C@H]2CC[C@H](C(F)(F)c3cc(Cl)nc(N4CCN(S(=O)(=O)c5ccc(N6C[C@H](N)CC6=O)cc5)CC4)c3)CC2)CC1` [Example 013, Trans-(4R)-4-amino-1-[4-[4-[4-[[4-[4-(2-aminoethyl)piperazine-1-carbonyl]cyclohexyl]-difluoro-methyl]-6-chloro-2-pyridyl]piperazin-1-yl]sulfonylphenyl]pyrrolidin-2-one], the figures for the minimum inhibitory concentration (MIC) in series [1], in series [2] and in series [5] were 1.3 µg/mL (≈ 1.8 µM), 2.6 µg/mL (≈ 3.59 µM) and 2.6 µg/mL (≈ 3.59 µM), respectively. In addition, the “Clearance of Human microsome” value in series [3] turned out to be 6.77 mL/min/kg. Besides, the IC50 in series [4] (setting [6]) was 4.15 nM.
With `NC(=O)[C@H]1CC[C@H](C(F)(F)c2cc(Cl)nc(N3CCN(S(=O)(=O)c4ccc(N5C[C@H](N)CC5=O)cc4)CC3)c2)CC1` [Example 014], the MIC in series [1], in series [2] and in series [5] was 1.1 µg/mL (≈ 1.8 µM) each time. In addition, the “Clearance of Human microsome” value in series [3] is listed as 6.15 mL/min/kg. Besides, in series [4] (setting [6]), the IC50 is below 3.27 nM.
Turning to `CN(C)CCCNC(=O)c1ccc(C(F)(F)c2cc(Cl)nc(N3CCN(S(=O)(=O)c4ccc(N5C[C@H](N)CC5=O)cc4)CC3)c2)cc1` [Example 020, 4-[[2-chloro-6-[4-[4-[(4R)-4-amino-2-oxo-pyrrolidin-1-yl]phenyl]sulfonylpiperazin-1-yl]-4-pyridyl]-difluoro-methyl]-N-[3-(dimethylamino)propyl]benzamide], the MIC in series [1], in series [2] and in series [5] was 0.72 µg/mL (≈ 1.04 µM) throughout. In addition, in series [3], the “Clearance of Human microsome” value was found to be 9.48 mL/min/kg. Also, the IC50 in series [4] (setting [6]) was 2.9 nM.
With `NCCCNC(=O)c1cnc(C(F)(F)c2cc(Cl)nc(N3CCN(S(=O)(=O)c4ccc(N5C[C@H](N)CC5=O)cc4)CC3)c2)cn1` [Example 021, N-(3-aminopropyl)-5-[[2-chloro-6-[4-[4-[(4R)-4-amino-2-oxo-pyrrolidin-1-yl]phenyl]sulfonylpiperazin-1-yl]-4-pyridyl]-difluoro-methyl]pyrazine-2-carboxamide], the minimal inhibitory concentration (MIC) is 1.8 µg/mL (≈ 2.71 µM) in series [1], 1.3 µg/mL (≈ 1.96 µM) in series [2] and 2.2 µg/mL (≈ 3.31 µM) in series [5]. Besides, in series [3], the “Clearance of Human microsome” value is given as 10.85 mL/min/kg. Further, in series [4] (setting [6]), the half-maximal inhibitory concentration (IC50) is 3.01 nM.
With `NCC(O)CNC(=O)c1cnc(C(F)(F)c2cc(Cl)nc(N3CCN(S(=O)(=O)c4ccc(N5C[C@H](N)CC5=O)cc4)CC3)c2)cn1` (stereo partly drawn) [Example 022, N-(3-amino-2-hydroxy-propyl)-5-[[2-chloro-6-[4-[4-[(4R)-4-amino-2-oxo-pyrrolidin-1-yl]phenyl]sulfonylpiperazin-1-yl]-4-pyridyl]-difluoro-methyl]pyrazine-2-carboxamide], the figures for the minimal inhibitory concentration (MIC) in series [1], in series [2] and in series [5] were 0.71 µg/mL (≈ 1.04 µM), 0.71 µg/mL (≈ 1.04 µM) and 1.4 µg/mL (≈ 2.06 µM), respectively. Moreover, the “Clearance of Human microsome” value in series [3] is recorded as 6.15 mL/min/kg. Moreover, the IC50 in series [4] (setting [6]) is 5.88 nM.
As for `CN(C)CCCNC(=O)c1cnc(C(F)(F)c2cc(Cl)nc(N3CCN(S(=O)(=O)c4ccc(N5C[C@H](N)CC5=O)cc4)CC3)c2)cn1` [Example 023, 5-[[2-chloro-6-[4-[4-[(4R)-4-amino-2-oxo-pyrrolidin-1-yl]phenyl]sulfonylpiperazin-1-yl]-4-pyridyl]-difluoro-methyl]-N-[3-(dimethylamino)propyl]pyrazine-2-carboxamide], the values for the MIC in series [1], in series [2] and in series [5] were 2.9 µg/mL (≈ 4.19 µM), 1.4 µg/mL (≈ 2.02 µM) and 1.4 µg/mL (≈ 2.02 µM), respectively. The “Clearance of Human microsome” value in series [3] is reported as 6.15 mL/min/kg. The IC50 in series [4] (setting [6]) is below 2.89 nM.

One may read the MIC as the smallest concentration in the dilution series that meets the test's criterion for growth inhibition. What is called IC50 is the midpoint of a concentration-inhibition curve.
